#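 How tested: cells in 96-well plates exposed to compound for 48 hours at five concentrations. GI50 marks 50% less growth.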 Active and inactive are the calls of the source. Cut-off read from the data, not from the text of the source: active = GI50 up to about 1.1 µM and inactive = higher. Residues, ends and D or L forms follow the SMILES beside them. *: point of attachment. Boc = CC(C)(C)OC(=O)*; OBn = c1ccc(CO*)cc1
# Experiments:
# Test in all cases: NCI anticancer screen, dose series, 48 h
# SK-MEL-5 = tested on: SK-MEL-5
# NCI-H522 = tested on: NCI-H522
# SNB-75 = tested on: SNB-75
# T47D = tested on: T47D
# HOP-92 = tested on: HOP-92
# SF-268 = tested on: SF-268
# CCRF-CEM = tested on: CCRF-CEM
# HCT-116 = tested on: HCT-116
# M14 = tested on: M14
# SF-295 = tested on: SF-295
# 786-0 = tested on: 786-0
# A549 = tested on: A549
# RPMI-8226 = tested on: RPMI-8226
# TK-10 = tested on: TK-10
# UO-31 = tested on: UO-31
# ACHN = tested on: ACHN
# CAKI-1 = tested on: CAKI-1
# DU-145 = tested on: DU-145
# IGROV-1 = tested on: IGROV-1
Compound,GI50 (SK-MEL-5),GI50 (NCI-H522),GI50 (SNB-75),GI50 (T47D),GI50 (HOP-92),GI50 (SF-268),GI50 (CCRF-CEM),GI50 (HCT-116),GI50 (M14),GI50 (SF-295),GI50 (786-0),GI50 (A549),GI50 (RPMI-8226),GI50 (TK-10),GI50 (UO-31),GI50 (ACHN),GI50 (CAKI-1),GI50 (DU-145),GI50 (IGROV-1)
CCOC(CBr)OC1C(=O)OCC1(C)C (stereo not given),> 100 µM (inactive),> 100 µM (inactive),> 100 µM (inactive),> 100 µM (inactive),> 100 µM (inactive),> 100 µM (inactive),> 100 µM (inactive),> 100 µM (inactive),> 100 µM (inactive),> 100 µM (inactive),> 100 µM (inactive),> 100 µM (inactive),> 100 µM (inactive),> 100 µM (inactive),> 100 µM (inactive),> 100 µM (inactive),> 100 µM (inactive),> 100 µM (inactive),> 100 µM (inactive)
COc1ccc2c(C=O)c3n(c(=O)c2c1OC)CCc1cc2c(cc1-3)OCO2,24 µM (inactive),30.4 µM (inactive),18.9 µM (inactive),10.8 µM (inactive),10.9 µM (inactive),> 100 µM (inactive),> 100 µM (inactive),26.3 µM (inactive),18.6 µM (inactive),46 µM (inactive),90.2 µM (inactive),22.3 µM (inactive),3.68 µM (inactive),96.8 µM (inactive),51.8 µM (inactive),69.2 µM (inactive),> 100 µM (inactive),78.3 µM (inactive),56.6 µM (inactive)
N#CCN(Cc1ccccc1)[C@@H]1CCC[C@]1(O)C#Cc1ccc2c(c1)OCO2,16.4 µM (inactive),16.1 µM (inactive),31 µM (inactive),16.6 µM (inactive),12.9 µM (inactive),19.1 µM (inactive),17.6 µM (inactive),–,16.8 µM (inactive),19.8 µM (inactive),15.8 µM (inactive),18.5 µM (inactive),16 µM (inactive),21.1 µM (inactive),28.2 µM (inactive),18 µM (inactive),22.2 µM (inactive),27.4 µM (inactive),17.1 µM (inactive)
CC1=C2CC(C)(C)/C=C\C(=O)/C(C)=C\C3=C[C@H](C)C[C@]3(O2)C1=O,1.48 µM (inactive),0.201 µM (active),4.1 µM (inactive),0.544 µM (active),1.09 µM (active),6.78 µM (inactive),0.138 µM (active),0.443 µM (active),0.494 µM (active),8.87 µM (inactive),0.516 µM (active),4.47 µM (inactive),0.326 µM (active),2.03 µM (inactive),1.18 µM (inactive),1.03 µM (active),0.255 µM (active),4.67 µM (inactive),1.56 µM (inactive)
N=C(N)NS(=O)(=O)c1ccc(NC(=O)c2ccc3nc4ccccc4c(N)c3c2)cc1,> 100 µM (inactive),> 100 µM (inactive),> 100 µM (inactive),> 100 µM (inactive),> 100 µM (inactive),> 100 µM (inactive),> 100 µM (inactive),> 100 µM (inactive),> 100 µM (inactive),> 100 µM (inactive),> 100 µM (inactive),> 100 µM (inactive),> 100 µM (inactive),> 100 µM (inactive),> 100 µM (inactive),> 100 µM (inactive),> 100 µM (inactive),> 100 µM (inactive),> 100 µM (inactive)
Cc1ccc([Se](=C(C(=O)c2ccccc2)C(=O)c2ccccc2)c2ccc(C)cc2)cc1,18.7 µM (inactive),22.1 µM (inactive),37.8 µM (inactive),34.3 µM (inactive),15 µM (inactive),35.3 µM (inactive),–,34.4 µM (inactive),33.6 µM (inactive),22.3 µM (inactive),38.3 µM (inactive),25.3 µM (inactive),4.14 µM (inactive),23.4 µM (inactive),30.4 µM (inactive),24.5 µM (inactive),19.5 µM (inactive),38.7 µM (inactive),19.6 µM (inactive)
Cn1ccc(C(=O)N2CCSC2=S)c(OCc2ccccc2)c1=O,> 100 µM (inactive),39.2 µM (inactive),70.1 µM (inactive),66.7 µM (inactive),79.1 µM (inactive),> 100 µM (inactive),48.8 µM (inactive),> 100 µM (inactive),–,–,> 100 µM (inactive),> 100 µM (inactive),> 100 µM (inactive),> 100 µM (inactive),67.8 µM (inactive),> 100 µM (inactive),72.3 µM (inactive),> 100 µM (inactive),–
CC(=O)Nc1cccc(N2C(=O)/C(=C\c3cccc(Oc4ccccc4)c3)S(=O)(=O)C2c2ccccc2)c1 (stereo not given),76.6 µM (inactive),69 µM (inactive),> 100 µM (inactive),25 µM (inactive),43.3 µM (inactive),–,57.8 µM (inactive),34.1 µM (inactive),90.6 µM (inactive),46.5 µM (inactive),> 100 µM (inactive),> 100 µM (inactive),61.5 µM (inactive),> 100 µM (inactive),33.1 µM (inactive),> 100 µM (inactive),53.5 µM (inactive),> 100 µM (inactive),50.7 µM (inactive)
CC1=C(C#N)S(=O)(=O)c2c(oc(C)c2C)N1,> 100 µM (inactive),> 100 µM (inactive),> 100 µM (inactive),> 100 µM (inactive),> 100 µM (inactive),> 100 µM (inactive),–,> 100 µM (inactive),> 100 µM (inactive),> 100 µM (inactive),> 100 µM (inactive),> 100 µM (inactive),> 100 µM (inactive),> 100 µM (inactive),> 100 µM (inactive),> 100 µM (inactive),> 100 µM (inactive),> 100 µM (inactive),–
CN(C(=O)c1cc2c(s1)sc1c(=O)n(C)c3ccccc3c12)c1ccccc1,3.56 µM (inactive),4.41 µM (inactive),4.33 µM (inactive),28.8 µM (inactive),42.4 µM (inactive),–,2.74 µM (inactive),4.93 µM (inactive),50.9 µM (inactive),2.25 µM (inactive),5.27 µM (inactive),8.55 µM (inactive),–,24.7 µM (inactive),6.7 µM (inactive),5.46 µM (inactive),7.41 µM (inactive),69.8 µM (inactive),4.37 µM (inactive)
CCOC(=O)c1sc2nc(SC)nc(Nc3ccc4c(c3)OCCCO4)c2c1N,3.29 µM (inactive),3.3 µM (inactive),–,2.14 µM (inactive),61.1 µM (inactive),20.8 µM (inactive),4.66 µM (inactive),67.1 µM (inactive),17.3 µM (inactive),8.95 µM (inactive),19.3 µM (inactive),8.47 µM (inactive),4.25 µM (inactive),40.6 µM (inactive),85.1 µM (inactive),26.9 µM (inactive),> 100 µM (inactive),31.8 µM (inactive),> 100 µM (inactive)
CCCCOC(=O)NC(c1ccccc1)C(O)C(=O)OC1C[C@@]2(O)C(OC(=O)c3ccccc3)C3[C@](C)(C(=O)[C@H](OC(C)=O)C(=C1C)C2(C)C)[C@@H](O)C[C@H]1OC[C@@]31OC(C)=O (stereo not given in full),0.0102 µM (active),0.00234 µM (active),0.0179 µM (active),0.175 µM (active),5.7 µM (inactive),0.0113 µM (active),0.00425 µM (active),0.00216 µM (active),0.0102 µM (active),0.0159 µM (active),0.00875 µM (active),0.00873 µM (active),0.00377 µM (active),0.101 µM (active),0.176 µM (active),0.0678 µM (active),–,0.0125 µM (active),0.00405 µM (active)
CCOC(=O)c1cc(=O)c2ccnc3c2n1CCS3,> 100 µM (inactive),22.7 µM (inactive),8.3 µM (inactive),17.6 µM (inactive),66.4 µM (inactive),> 100 µM (inactive),48.5 µM (inactive),> 100 µM (inactive),> 100 µM (inactive),> 100 µM (inactive),> 100 µM (inactive),69.8 µM (inactive),–,> 100 µM (inactive),57.5 µM (inactive),> 100 µM (inactive),> 100 µM (inactive),> 100 µM (inactive),40.6 µM (inactive)
CC(C)CC(NC(=O)OC(C)(C)C)C(=O)NC(CC(=O)OCc1ccccc1)C(=O)OCc1ccccc1 (stereo not drawn) (Boc-Leu-Asp(OBn)-OBn; configuration not given here),24.7 µM (inactive),27.9 µM (inactive),87.9 µM (inactive),> 100 µM (inactive),30.6 µM (inactive),41.8 µM (inactive),33.1 µM (inactive),30.7 µM (inactive),19.2 µM (inactive),43.7 µM (inactive),19 µM (inactive),> 100 µM (inactive),27.8 µM (inactive),21.3 µM (inactive),27 µM (inactive),–,> 100 µM (inactive),37.9 µM (inactive),> 10 µM (inactive)
COC(=O)c1cc2c3c(ccc2[nH]1)N(C(=O)c1cc2cc(OC)c(OC)c(OC)c2[nH]1)CC3CCl (stereo not given),2.23 µM (inactive),2.9 µM (inactive),> 100 µM (inactive),> 100 µM (inactive),> 100 µM (inactive),> 100 µM (inactive),5.98 µM (inactive),4.46 µM (inactive),> 27.5 µM (inactive),7.78 µM (inactive),3.79 µM (inactive),5.37 µM (inactive),1.69 µM (inactive),> 54.2 µM (inactive),7.59 µM (inactive),5.62 µM (inactive),–,6.44 µM (inactive),7.87 µM (inactive)

# From ChEMBL document CHEMBL1201862, “PubChem BioAssay data set” (2004)
